Reference: the supplement of paper PMC10307832

How the values were obtained:
Test in all cases: relative viability (nuclei count vs DMSO), 5 days (fraction); higher = more cells survive
[1] = compound: OCc1c[nH]c2ccccc12 [Indole-3-carbinol] + CC(=O)c1c(C)c2cnc(Nc3ccc(N4CCNCC4)cn3)nc2n(C2CCCC2)c1=O [Palbociclib] (partner 0.5 µM)
Method in brief: (§1)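 Lung cancer cell lines, seeded in 1536-well plates, were treated the following day by pin tool with a single drug or with five library-drug doses (not always all listed) in √10 steps on top of a fixed anchor-drug dose. Cells were fixed and nuclei stained in one step after 5 days, and nuclei were counted. Relative viability is the nuclei count for treated wells divided by that for vehicle wells, reported as medians of duplicate plates.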

[2] = compound: OCc1c[nH]c2ccccc12 [Indole-3-carbinol] + Cc1cc(Nc2cc(N3CCN(C)CC3)nc(Sc3ccc(NC(=O)C4CC4)cc3)n2)n[nH]1 [Tozasertib] (partner 0.1 µM)
Method in brief: as §1

[3] = compound: OCc1c[nH]c2ccccc12 [Indole-3-carbinol] + NC(=O)Nc1cc(-c2cccc(F)c2)sc1C(=O)N[C@H]1CCCNC1 [AZD7762] (partner 0.2 µM)
Method in brief: as §1

[4] = compound: OCc1c[nH]c2ccccc12 [Indole-3-carbinol] + Cc1nc(Nc2ncc(C(=O)Nc3c(C)cccc3Cl)s2)cc(N2CCN(CCO)CC2)n1 [Dasatinib] (partner 0.075 µM)
Method in brief: as §1

[5] = compound: OCc1c[nH]c2ccccc12 [Indole-3-carbinol] + CC(=O)Nc1cccc(-n2c(=O)n(C3CC3)c(=O)c3c(Nc4ccc(I)cc4F)n(C)c(=O)c(C)c32)c1 [Trametinib] (partner 0.02 µM)
Method in brief: as §1

NCI-H2087
relative viability ([1]; first compound 0.253 µM): 0.193 | relative viability ([1]; first compound 0.8 µM): 0.278 | relative viability ([1]; first compound 2.53 µM): 0.27 | relative viability ([1]; first compound 8 µM): 0.262 | relative viability ([2]; first compound 0.253 µM): 0.214 | relative viability ([2]; first compound 0.8 µM): 0.294 | relative viability ([2]; first compound 2.53 µM): 0.283 | relative viability ([2]; first compound 8 µM): 0.296 | relative viability ([3]; first compound 0.253 µM): 1.31 | relative viability ([3]; first compound 0.8 µM): 1.46 | relative viability ([3]; first compound 2.53 µM): 1.33 | relative viability ([3]; first compound 8 µM): 1.15 | relative viability ([4]; first compound 0.253 µM): 0.985 | relative viability ([4]; first compound 0.8 µM): 0.942 | relative viability ([4]; first compound 2.53 µM): 0.936 | relative viability ([4]; first compound 8 µM): 0.78 | relative viability ([5]; first compound 0.253 µM): 0.179 | relative viability ([5]; first compound 0.8 µM): 0.23 | relative viability ([5]; first compound 2.53 µM): 0.193 | relative viability ([5]; first compound 8 µM): 0.201

H3255
relative viability ([1]; first compound 0.253 µM): 0.302 | relative viability ([1]; first compound 0.8 µM): 0.32 | relative viability ([1]; first compound 2.53 µM): 0.347 | relative viability ([1]; first compound 8 µM): 0.307 | relative viability ([2]; first compound 0.253 µM): 0.691 | relative viability ([2]; first compound 0.8 µM): 0.599 | relative viability ([2]; first compound 2.53 µM): 0.635 | relative viability ([2]; first compound 8 µM): 0.58 | relative viability ([3]; first compound 0.253 µM): 0.892 | relative viability ([3]; first compound 0.8 µM): 0.755 | relative viability ([3]; first compound 2.53 µM): 0.911 | relative viability ([3]; first compound 8 µM): 0.747 | relative viability ([4]; first compound 0.253 µM): 0.346 | relative viability ([4]; first compound 0.8 µM): 0.456 | relative viability ([4]; first compound 2.53 µM): 0.338 | relative viability ([4]; first compound 8 µM): 0.321 | relative viability ([5]; first compound 0.253 µM): 0.515 | relative viability ([5]; first compound 0.8 µM): 0.643 | relative viability ([5]; first compound 2.53 µM): 0.57 | relative viability ([5]; first compound 8 µM): 0.589

NCI-H23
relative viability ([1]; first compound 0.253 µM): 0.435 | relative viability ([1]; first compound 0.8 µM): 0.463 | relative viability ([1]; first compound 2.53 µM): 0.546 | relative viability ([1]; first compound 8 µM): 0.419 | relative viability ([2]; first compound 0.253 µM): 0.351 | relative viability ([2]; first compound 0.8 µM): 0.359 | relative viability ([2]; first compound 2.53 µM): 0.345 | relative viability ([2]; first compound 8 µM): 0.377 | relative viability ([3]; first compound 0.253 µM): 0.315 | relative viability ([3]; first compound 0.8 µM): 0.263 | relative viability ([3]; first compound 2.53 µM): 0.256 | relative viability ([3]; first compound 8 µM): 0.294 | relative viability ([4]; first compound 0.253 µM): 0.793 | relative viability ([4]; first compound 0.8 µM): 1.01 | relative viability ([4]; first compound 2.53 µM): 0.936 | relative viability ([4]; first compound 8 µM): 0.675 | relative viability ([5]; first compound 0.253 µM): 0.315 | relative viability ([5]; first compound 0.8 µM): 0.319 | relative viability ([5]; first compound 2.53 µM): 0.43 | relative viability ([5]; first compound 8 µM): 0.414

HCC-827
relative viability ([1]; first compound 0.253 µM): 0.495 | relative viability ([1]; first compound 0.8 µM): 0.292 | relative viability ([1]; first compound 2.53 µM): 0.479 | relative viability ([1]; first compound 8 µM): 0.471 | relative viability ([2]; first compound 0.253 µM): 0.4 | relative viability ([2]; first compound 0.8 µM): 0.398 | relative viability ([2]; first compound 2.53 µM): 0.429 | relative viability ([2]; first compound 8 µM): 0.383 | relative viability ([3]; first compound 0.253 µM): 0.228 | relative viability ([3]; first compound 0.8 µM): 0.192 | relative viability ([3]; first compound 2.53 µM): 0.213 | relative viability ([3]; first compound 8 µM): 0.265 | relative viability ([4]; first compound 0.253 µM): 0.338 | relative viability ([4]; first compound 0.8 µM): 0.315 | relative viability ([4]; first compound 2.53 µM): 0.316 | relative viability ([4]; first compound 8 µM): 0.357 | relative viability ([5]; first compound 0.253 µM): 0.516 | relative viability ([5]; first compound 0.8 µM): 0.542 | relative viability ([5]; first compound 2.53 µM): 0.505 | relative viability ([5]; first compound 8 µM): 0.533

HCC-78
relative viability ([1]; first compound 0.253 µM): 0.486 | relative viability ([1]; first compound 0.8 µM): 0.498 | relative viability ([1]; first compound 2.53 µM): 0.471 | relative viability ([1]; first compound 8 µM): 0.462 | relative viability ([2]; first compound 0.253 µM): 0.301 | relative viability ([2]; first compound 0.8 µM): 0.454 | relative viability ([2]; first compound 2.53 µM): 0.569 | relative viability ([2]; first compound 8 µM): 0.415 | relative viability ([3]; first compound 0.253 µM): 0.623 | relative viability ([3]; first compound 0.8 µM): 0.608 | relative viability ([3]; first compound 2.53 µM): 0.643 | relative viability ([3]; first compound 8 µM): 0.696 | relative viability ([4]; first compound 0.253 µM): 0.335 | relative viability ([4]; first compound 0.8 µM): 0.436 | relative viability ([4]; first compound 2.53 µM): 0.392 | relative viability ([4]; first compound 8 µM): 0.535 | relative viability ([5]; first compound 0.253 µM): 0.717 | relative viability ([5]; first compound 0.8 µM): 0.644 | relative viability ([5]; first compound 2.53 µM): 0.793 | relative viability ([5]; first compound 8 µM): 0.77

NCI-H1975
relative viability ([1]; first compound 0.253 µM): 0.699 | relative viability ([1]; first compound 0.8 µM): 0.704 | relative viability ([1]; first compound 2.53 µM): 0.554 | relative viability ([1]; first compound 8 µM): 0.644 | relative viability ([2]; first compound 0.253 µM): 0.651 | relative viability ([2]; first compound 0.8 µM): 1.03 | relative viability ([2]; first compound 2.53 µM): 0.797 | relative viability ([2]; first compound 8 µM): 0.88 | relative viability ([3]; first compound 0.253 µM): 0.624 | relative viability ([3]; first compound 0.8 µM): 0.79 | relative viability ([3]; first compound 2.53 µM): 0.764 | relative viability ([3]; first compound 8 µM): 0.613 | relative viability ([4]; first compound 0.253 µM): 0.376 | relative viability ([4]; first compound 0.8 µM): 0.426 | relative viability ([4]; first compound 2.53 µM): 0.329 | relative viability ([4]; first compound 8 µM): 0.35 | relative viability ([5]; first compound 0.253 µM): 0.559 | relative viability ([5]; first compound 0.8 µM): 0.493 | relative viability ([5]; first compound 2.53 µM): 0.337 | relative viability ([5]; first compound 8 µM): 0.641

CAL-12T
relative viability ([1]; first compound 0.253 µM): 0.443 | relative viability ([1]; first compound 0.8 µM): 0.517 | relative viability ([1]; first compound 2.53 µM): 0.573 | relative viability ([1]; first compound 8 µM): 0.398 | relative viability ([2]; first compound 0.253 µM): 0.291 | relative viability ([2]; first compound 0.8 µM): 0.351 | relative viability ([2]; first compound 2.53 µM): 0.335 | relative viability ([2]; first compound 8 µM): 0.278 | relative viability ([3]; first compound 0.253 µM): 0.608 | relative viability ([3]; first compound 0.8 µM): 0.631 | relative viability ([3]; first compound 2.53 µM): 0.733 | relative viability ([3]; first compound 8 µM): 0.536 | relative viability ([4]; first compound 0.253 µM): 0.385 | relative viability ([4]; first compound 0.8 µM): 0.53 | relative viability ([4]; first compound 2.53 µM): 0.536 | relative viability ([4]; first compound 8 µM): 0.366 | relative viability ([5]; first compound 0.253 µM): 0.361 | relative viability ([5]; first compound 0.8 µM): 0.411 | relative viability ([5]; first compound 2.53 µM): 0.31 | relative viability ([5]; first compound 8 µM): 0.295

NCI-H2126
relative viability ([1]; first compound 0.253 µM): 0.299 | relative viability ([1]; first compound 0.8 µM): 0.366 | relative viability ([1]; first compound 2.53 µM): 0.362 | relative viability ([1]; first compound 8 µM): 0.34 | relative viability ([2]; first compound 0.253 µM): 0.849 | relative viability ([2]; first compound 0.8 µM): 0.876 | relative viability ([2]; first compound 2.53 µM): 0.793 | relative viability ([2]; first compound 8 µM): 0.866 | relative viability ([3]; first compound 0.253 µM): 0.999 | relative viability ([3]; first compound 0.8 µM): 1.08 | relative viability ([3]; first compound 2.53 µM): 1.02 | relative viability ([3]; first compound 8 µM): 1.01 | relative viability ([4]; first compound 0.253 µM): 0.618 | relative viability ([4]; first compound 0.8 µM): 0.683 | relative viability ([4]; first compound 2.53 µM): 0.592 | relative viability ([4]; first compound 8 µM): 0.632 | relative viability ([5]; first compound 0.253 µM): 0.573 | relative viability ([5]; first compound 0.8 µM): 0.577 | relative viability ([5]; first compound 2.53 µM): 0.541 | relative viability ([5]; first compound 8 µM): 0.509
